Test results: patent US9346813B2, “Substituted pyrrolo[2,3-d]pyrimindines as CDK9 kinase inhibitors” (AbbVie Inc., priority 2014, dated 2016)

Experiments:
H929 cells = experiment: Cell viability assay in H929 cells (Cell TiterGlo); assay type: cell-based; conditions: Homo sapiens, NCI-H929, 24 hours at 37° C.
Experimental: Cell viability assays were performed using A431 or H929 cells. A431 cells were seeded in 96-well plates at 10,000 cells/well, and after overnight incubation, treated with compounds at 2-times the final concentration to result in a dose response of 3-fold dilutions from 10 μM to 0.0005 μM (50 μL/well, 0.1% final DMSO concentration). H929 cells were seeded in 96-well plates at 10,000 cells/well and treated immediately with compounds as described above. After 24 hours at 37° C., cell viability was measured using Cell TiterGlo reagent (Promega) with a luminescence reader. Alternately, cell viability assays were performed in 384-well format. A431 cells were seeded in 384-well plates at 2500 cells/well and, after overnight incubation, treated with compounds in a dose response of 3-fold dilutions from 10 μM to 0.0005 μM (25 nL/well, 0.1% final DMSO concentration). For the H929 viability assay, 25 nL/well of the compounds was dispensed into 384-well plates in a dose response as described above and cells were immediately seeded in 384-well plates at 2500 cells/well. After 24 hours at 37° C., cell viability was measured using Cell TiterGlo reagent (Promega) with a luminescence reader.

CDK9/Cyclin T1 = biological target: T1, CDK9/Cyclin T1 (Homo sapiens, UniProt P50750); experiment: CDK9 enzyme protocol (LANCE ULight TR-FRET kinase assay); assay type: biochemical; conditions: 4 nM CDK9/Cyclin T1, 1000 μM ATP, 100 nM U-light MBP peptide, 30 minutes
T1 construct: purchased Carna Biosciences 04-110
Experimental: CDK9 enzyme activities were measured using LANCE ULight TR-FRET kinase assay reagents (PerkinElmer, Waltham, Mass.). Compounds were directly added in 100% DMSO to white low volume assay plates (Perkin Elmer Proxiplate 6008289) using a Labcyte Echo acoustic dispenser. Assay reagents in serine/threonine kinase assay buffer containing 20 mM HEPES, 10 mM MgCl2, 100 mM Na3VO4, and 0.0075% Triton X-100. were added for final reaction mixture concentrations of 1000 μM ATP, 100 nM U-light MBP peptide (Perkin Elmer TRF0109M) and reaction initiated with 4 nM CDK9/Cyclin T1 (Carna Biosciences 04-110). The kinase reaction was carried out for 30 minutes before addition of stopping buffer to a final of 20 mM EDTA and 0.5 nM of LANCE Ultra Europium anti-phospho-MBP antibody (PerkinElmer TRF0201M) in LANCE detection buffer (PerkinElmer CR97-100). The reaction was equilibrated for 1 hour and the signal read in the Perkin Elmer Envision in TR-FRET mode (excitation at 320 nm and emission at 615/665 nm).

T1 sequence (P50750 whole entry): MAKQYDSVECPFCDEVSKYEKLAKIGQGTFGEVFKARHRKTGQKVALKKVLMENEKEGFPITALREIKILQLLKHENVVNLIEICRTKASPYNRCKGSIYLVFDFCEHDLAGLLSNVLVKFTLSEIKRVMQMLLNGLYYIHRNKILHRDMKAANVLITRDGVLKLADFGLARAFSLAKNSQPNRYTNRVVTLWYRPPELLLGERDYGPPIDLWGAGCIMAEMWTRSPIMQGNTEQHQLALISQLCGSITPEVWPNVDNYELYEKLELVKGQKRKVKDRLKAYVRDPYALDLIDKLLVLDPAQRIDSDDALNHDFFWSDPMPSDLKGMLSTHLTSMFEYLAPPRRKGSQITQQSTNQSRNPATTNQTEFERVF
T1 sequence (O60563 whole entry partner): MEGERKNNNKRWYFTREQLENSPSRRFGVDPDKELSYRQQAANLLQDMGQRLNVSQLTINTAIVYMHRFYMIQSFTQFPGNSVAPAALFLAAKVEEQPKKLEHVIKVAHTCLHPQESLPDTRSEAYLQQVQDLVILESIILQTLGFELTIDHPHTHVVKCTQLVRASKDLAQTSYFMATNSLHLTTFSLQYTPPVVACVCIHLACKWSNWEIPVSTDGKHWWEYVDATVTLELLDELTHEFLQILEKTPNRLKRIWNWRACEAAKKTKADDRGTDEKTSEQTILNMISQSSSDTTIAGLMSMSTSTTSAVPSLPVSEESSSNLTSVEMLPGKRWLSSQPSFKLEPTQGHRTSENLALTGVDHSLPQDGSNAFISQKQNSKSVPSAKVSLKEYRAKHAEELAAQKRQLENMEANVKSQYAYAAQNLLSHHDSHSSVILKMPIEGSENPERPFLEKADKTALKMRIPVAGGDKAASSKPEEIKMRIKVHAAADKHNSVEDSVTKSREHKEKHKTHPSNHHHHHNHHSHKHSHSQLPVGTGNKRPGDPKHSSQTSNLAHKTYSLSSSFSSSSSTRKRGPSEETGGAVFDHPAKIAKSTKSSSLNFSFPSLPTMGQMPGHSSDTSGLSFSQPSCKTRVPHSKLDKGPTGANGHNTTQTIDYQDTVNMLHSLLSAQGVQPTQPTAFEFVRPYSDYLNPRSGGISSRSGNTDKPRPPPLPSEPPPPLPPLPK

Row | SMILES | EC50 (H929 cells) | IC50 (CDK9/Cyclin T1)
1 | COc1ccc(F)cc1-c1ncnc2[nH]c(C3=CCN(Cc4cc(F)cc(F)c4)CC3)cc12 [Example 36, 6-[1-(3,5-difluorobenzyl)-1,2,3,6-tetrahydropyridin-4-yl]-4-(5-fluoro-2-methoxyphenyl)-7H-pyrrolo[2,3-d]pyrimidine] | 1000 nM | 170 nM
2 | COc1ccc(F)cc1-c1ncnc2[nH]c(C3=CCN(CC4CCNCC4)CC3)cc12 [Example 39, 4-(5-fluoro-2-methoxyphenyl)-6-[1-(piperidin-4-ylmethyl)-1,2,3,6-tetrahydropyridin-4-yl]-7H-pyrrolo[2,3-d]pyrimidine] | 4740 nM | 210 nM
3 | COc1ccc(Cl)cc1-c1ncnc2[nH]c(C3=CCN(S(C)(=O)=O)CC3)cc12 [Example 45, 4-(5-chloro-2-methoxyphenyl)-6-[1-(methylsulfonyl)-1,2,3,6-tetrahydropyridin-4-yl]-7H-pyrrolo[2,3-d]pyrimidine] | > 10000 nM | 180 nM
4 | COc1ccc(F)cc1-c1ncnc2[nH]c(C3=CCC(F)(F)CC3)cc12 [Example 61, 6-(4,4-difluorocyclohex-1-en-1-yl)-4-(5-fluoro-2-methoxyphenyl)-7H-pyrrolo[2,3-d]pyrimidine] | 1400 nM | 62 nM
5 | COc1ccc(F)cc1-c1ncnc2[nH]c(C3=CCOCC3)cc12 [Example 65, 6-(3,6-dihydro-2H-pyran-4-yl)-4-(5-fluoro-2-methoxyphenyl)-7H-pyrrolo[2,3-d]pyrimidine] | 1000 nM | 69 nM
6 | COc1ccc(F)cc1-c1ncnc2[nH]c(C3=CCN(Cc4ccc(N)cc4)CC3)cc12 [Example 70, 4-({4-[4-(5-fluoro-2-methoxyphenyl)-7H-pyrrolo[2,3-d]pyrimidin-6-yl]-3,6-dihydropyridin-1(2H)-yl}methyl)aniline] | 160 nM | 91 nM
7 | COc1ccc(F)cc1-c1ncnc2[nH]c(C3=CCN(C(=O)[C@H]4CC[C@H](C(=O)O)CC4)CC3)cc12 [Example 74, trans-4-({4-[4-(5-fluoro-2-methoxyphenyl)-7H-pyrrolo[2,3-d]pyrimidin-6-yl]-3,6-dihydropyridin-1(2H)-yl}carbonyl)cyclohexanecarboxylic acid] | 5900 nM | 110 nM
8 | CN(C)C(=O)N1CC=C(c2cc3c(-c4cccc(F)c4F)ncnc3[nH]2)CC1 [Example 76, 4-[4-(2,3-difluorophenyl)-7H-pyrrolo[2,3-d]pyrimidin-6-yl]-N,N-dimethyl-3,6-dihydropyridine-1(2H)-carboxamide] | 3500 nM | 68 nM
9 | COc1ccc(F)cc1-c1ncnc2[nH]c(C3=CCC(N[C@H](C(=O)O)C(C)C)CC3)cc12 (stereo partly drawn) [Example 78, N-{4-[4-(5-fluoro-2-methoxyphenyl)-7H-pyrrolo[2,3-d]pyrimidin-6-yl]cyclohex-3-en-1-yl}-L-valine] | 6800 nM | 750 nM
10 | COc1ccc(F)cc1-c1ncnc2[nH]c(C3=CCC(C(=O)O)CC3)cc12 (centres unmarked) [Example 79, 4-[4-(5-fluoro-2-methoxyphenyl)-7H-pyrrolo[2,3-d]pyrimidin-6-yl]cyclohex-3-ene-1-carboxylic acid] | 6700 nM | 290 nM
11 | COc1ccc(F)cc1-c1ncnc2[nH]c(C3=CCC(N[C@@H](C(=O)O)C(C)C)CC3)cc12 (stereo partly drawn) [Example 84, N-{4-[4-(5-fluoro-2-methoxyphenyl)-7H-pyrrolo[2,3-d]pyrimidin-6-yl]cyclohex-3-en-1-yl}-D-valine] | 6400 nM | 440 nM
12 | COc1ccc(F)cc1-c1ncnc2[nH]c(C3=CCC(N[C@@H](CC(C)C)C(=O)O)CC3)cc12 (stereo partly drawn) [Example 85, N-{4-[4-(5-fluoro-2-methoxyphenyl)-7H-pyrrolo[2,3-d]pyrimidin-6-yl]cyclohex-3-en-1-yl}-L-leucine] | 1700 nM | 170 nM

Second part, the compound after the results:

Row | EC50 (H929 cells) | IC50 (CDK9/Cyclin T1) | SMILES
13 | 329 nM | 51 nM | CS(=O)(=O)N1CC=C(c2cc3c(-c4cc(NCc5ccncc5)ccc4F)ncnc3[nH]2)CC1 [Example 37, 4-fluoro-3-{6-[1-(methylsulfonyl)-1,2,3,6-tetrahydropyridin-4-yl]-7H-pyrrolo[2,3-d]pyrimidin-4-yl}-N-(pyridin-4-ylmethyl)aniline]
14 | 376 nM | 43 nM | COc1ccc(F)cc1-c1ncnc2[nH]c(C3=CCN(S(=O)(=O)C4CCS(=O)(=O)C4)CC3)cc12 (centres unmarked) [Example 38, 6-{1-[(1,1-dioxidotetrahydrothiophen-3-yl)sulfonyl]-1,2,3,6-tetrahydropyridin-4-yl}-4-(5-fluoro-2-methoxyphenyl)-7H-pyrrolo[2,3-d]pyrimidine]
15 | 669 nM | 150 nM | COc1ccc(F)cc1-c1ncnc2[nH]c(C3=CCN(S(=O)(=O)C(F)(F)F)CC3)cc12 [Example 40, 4-(5-fluoro-2-methoxyphenyl)-6-{1-[(trifluoromethyl)sulfonyl]-1,2,3,6-tetrahydropyridin-4-yl}-7H-pyrrolo[2,3-d]pyrimidine]
16 | 420 nM | 200 nM | CCOc1ccc(F)cc1-c1ncnc2[nH]c(C3=CCN(Cc4ccc(NC(C)=O)cc4)CC3)cc12 [Example 68, N-[4-({4-[4-(2-ethoxy-5-fluorophenyl)-7H-pyrrolo[2,3-d]pyrimidin-6-yl]-3,6-dihydropyridin-1(2H)-yl}methyl)phenyl]acetamide]
17 | 780 nM | 110 nM | COC(=O)c1ccc(CN2CC=C(c3cc4c(-c5cc(F)ccc5OC)ncnc4[nH]3)CC2)cc1 [Example 71, methyl 4-({4-[4-(5-fluoro-2-methoxyphenyl)-7H-pyrrolo[2,3-d]pyrimidin-6-yl]-3,6-dihydropyridin-1(2H)-yl}methyl)benzoate]
18 | 150 nM | 70 nM | COc1ccc(F)cc1-c1ncnc2[nH]c(C3=CCN(C(=O)[C@H]4CC[C@H](C(=O)OC)CC4)CC3)cc12 [Example 73, methyl trans-4-({4-[4-(5-fluoro-2-methoxyphenyl)-7H-pyrrolo[2,3-d]pyrimidin-6-yl]-3,6-dihydropyridin-1(2H)-yl}carbonyl)cyclohexanecarboxylate]
19 | 600 nM | 16 nM | COc1ccc(F)cc1-c1ncnc2[nH]c(C3=CCN(C(=O)N(C)C)CC3)cc12 [Example 75, 4-[4-(5-fluoro-2-methoxyphenyl)-7H-pyrrolo[2,3-d]pyrimidin-6-yl]-N,N-dimethyl-3,6-dihydropyridine-1(2H)-carboxamide]
20 | 600 nM | 290 nM | COc1ccc(F)cc1-c1ncnc2[nH]c(C3=CCC(N[C@H](C(=O)O)C4CCCCC4)CC3)cc12 (stereo partly drawn) [Example 77, (2S)-cyclohexyl({4-[4-(5-fluoro-2-methoxyphenyl)-7H-pyrrolo[2,3-d]pyrimidin-6-yl]cyclohex-3-en-1-yl}amino)acetic acid]
21 | 780 nM | 71 nM | CCOC(=O)NS(=O)(=O)N1CC=C(c2cc3c(-c4cc(F)ccc4OC)ncnc3[nH]2)CC1 [Example 82, ethyl ({4-[4-(5-fluoro-2-methoxyphenyl)-7H-pyrrolo[2,3-d]pyrimidin-6-yl]-3,6-dihydropyridin-1(2H)-yl}sulfonyl)carbamate]
22 | 520 nM | 320 nM | COc1ccc(F)cc1-c1ncnc2[nH]c(C3=CCC(N[C@H](C(=O)O)C(C)(C)C)CC3)cc12 (stereo partly drawn) [Example 83, N-{4-[4-(5-fluoro-2-methoxyphenyl)-7H-pyrrolo[2,3-d]pyrimidin-6-yl]cyclohex-3-en-1-yl}-3-methyl-L-valine]
